Laboratory results from patent US11207379B2, “Peptides with anti-cancer activity” (IDP DISCOVERY PHARMA, S.L., priority 2016, dated 2021).
Numbered stars: 1 amine (or outer) side, 2 acyl side, 3 side chain; on linkers, the order of the positions; unused ones are H or OH. Bridge positions count the residues as written; N and C are the ends. Square brackets hold non-standard residues; d marks the D form. Ends that are not written are not given here. Peptide text beside a SMILES is read from it. ξ: configuration not given here. ξαMeNle(6-ylidene) = CC(CCCC=[*:3])(N[*:1])C(=O)[*:2]; X1 = CC(CCCCCCC=[*:3])(N[*:1])C(=O)[*:2]; Suc = O=C(CCC(=O)[*:2])[*:1]

Tests used:
[1] = target: MM.1S, B Lymphoblast (multiple myeloma); assay: Viability assay (MTT, Alamar Blue, hexosaminidase), 72 h; format: cell-based
Procedure: MM.1S, B Lymphoblast (multiple myeloma), ATCC: CRL-2974
(§1) Cell lines A549, MCF-7 and RAMOS were cultured in incubator under CO2 (6%) at 37° C. in DMEM high glucose (Dulbecco's Modified Eagle Solution, Gibco-BRL 31966-21) medium with 10% fetal bovine serum inactivated (FBS) (Gibco-BRL 10106-169). Cell lines HL-60 and MM.1S were cultured in incubator at 37° C. in RPMI-1640 (Sigma R8758) medium with 10% of fetal bovine serum inactivated (FBS) and 2 mM glutamine (Sigma G7513). Cell lines BJ were cultured in incubator under CO2 (6%) at 37° C. in Eagle's Minimum Essential Medium (Sigma, M-2279) with 10% fetal bovine serum inactivated (FBS) (Gibco-BRL 10106-169).
(§2) During the amplification step and the assays adherent cells were rinsed with DPBS (Dulbecco's Phosphate Buffered Saline, Sigma D1283) three times and afterward treated for 5 minutes with trypsin ([…]) (Gibco-BRL, 15400054) in solution of DPBS at 37° C., and, once detached, transferred in the culturing medium. No-adherent cells were centrifuged and transferred in the culturing medium. Cells were counted in a Neubauer chamber after labelling with Tripan-Blue.
(§3) A549, MCF-7 and JB cells were seeded at a density of 5000 cells/well and HL-60, MM.1S and Ramos at 10000 cells/well in 100 μl of medium in 96 well plates. After 24 h, the compounds to be tested were added to calculate the dose/response curve at the starting concentration of 100 μM with serial dilutions (1:1). Controls are the untreated cells. Each experiment was performed in triplicate.
(§4) Cells were incubated during 72 h in incubator under CO2 atmosphere at 37° C. Cell viability was measured by means of MTT (3-(4,5-dimethylthiazol-2-yl)-2.5-diphenyltetrazolium bromide) assay, Alamar Blue® (Biosource DAL1100) and Hexosaminidase activity test, consecutively, following manufacturer instructions.
(§5) MTT: 1. Stock solution of MTT (475989 Calbiochem) was 5 mg/ml in PBS 1×. As negative control (experiment noise) 3 wells were treated with 20 μl/well of a solution of SDS 10% in H2O. The same control was used for Alamar Blue/Hexosaminidase. 10 μl/well of MTT solution were added and the plate was incubated for 3-4 hr. The medium was discarded and 100 μl of extracting buffer (PBS 1×, 15% SDS, 50% […] N,N-Dimethylformamide, pH 4.7) were added to each well. Plates were incubated for 16 h at room temperature under orbital shaking. Absorbance at 570 nm was finally measured.
(§6) Alamar Blue: 10 μl Alamar Blue solution was added to each well and the plates were incubated for […] in the incubator. Fluorescence ratio at 535/590 (excitation/emission) was measured in Cytofluor (Millipore) fluorimeter. Blank control was determined by lysis of untreated cells with con 2% of Triton X100, right before adding Alamar Blue solution.
(§7) Hexosaminidase activity test: after Alamar Blue lecture, medium was discarded and plates were rinsed once with PBS. 60 μl hexosaminidase substrate (p-nitrophenol-N-acetyl-beta-D-glucosamide 7.5 mM [Sigma N-9376], sodium citrate 0.1 M, pH 5.0, 0.25% Triton X-100) was added to each well and the plates were incubated at 37° C. for 2-5 h, according to the cell type (hexosaminidase activity changes according to the cell type). […] Blank control was the same as described before.
(§8) Data analysis was performed calculating the percentage of cell viability normalized vs. the values of negative control, which was considered equal to 100%. The dose/response curve was fitted through the sigmoidal equation dose-response (variable slope) and the EC50 values were calculated as follow: Y=Bottom+(Top−Bottom)/(1+10^{[(Log EC50−X)*HillSlope]},

[2] = target: HL-60, promyeloblast (acute myelocytic leukemia, AML); assay: as above; format: cell-based
Procedure: HL-60, promyeloblast (acute myelocytic leukemia, AML), ECACC: 98070106
as §1, §2, §3, §4, §5, §6, §7, §8

[3] = target: A549, epithelial (lung cancer); assay: as above; format: cell-based
Procedure: A549, epithelial (lung cancer), ATCC:CCL-185
as §1, §2, §3, §4, §5, §6, §7, §8

[4] = target: RAMOS, B lymphocyte (Burkitt's Lymphoma); assay: as above; format: cell-based
Procedure: RAMOS, B lymphocyte (Burkitt's Lymphoma), ATCC: CRL-1596
as §1, §2, §3, §4, §5, §6, §7, §8

[5] = target: MCF-7, epithelial (breast cancer); assay: as above; format: cell-based
Procedure: MCF-7, epithelial (breast cancer), ECACC: 86012803
as §1, §2, §3, §4, §5, §6, §7, §8

[6] = tested on: several tumor cell lines; assay: Anticancer activity in viability assay, stated in words; format: cell-based
Procedure: as §3, §4, §8

[7] = Stability test in human plasma, 37 °C, UPLC-MS/MS; format: in vitro ADME
Procedure: Reagents: ACN LC-MS (Scharlab AC03712500); MeOH LC-MS (Scharlab ME03262500); IPA LC-MS (Scharlab AL03262500); HCOOH (Carlo Erba 405792); DPBS (Lonza BE17-512F); human plasma with EDTAK2 as anticoagulant were provided by Centre d'Investigació de Medicaments located at the Hospital de la Santa Creu i Sant Pau, C/. Sant Antoni Maria Claret 167, Pavelló Sant Frederic, 08025 Barcelona. Plasma was extracted from a healthy patient on 1 Feb. 2015. It was kept at −20° C. until the experiment day.
A calibration curve of eight non-zero concentration levels (from P1 to P8) was prepared in a concentration interval from 5 to 100 μM for S09. One blank sample of DPBS was also included. All calibration samples were analysed in duplicate. Calibration standard samples were prepared by addition of 30 μL of each calibration solution (from P1 to P8 and blank) to 270 μL of human plasma. Samples for incubation were prepared adding 15 μL of 1 mM solution of S09 to 135 μL of human plasma (final concentration 100 μM). 15 samples were prepared. Samples were incubated at 37° C. for 0, 0.5, 2, 6 and 24 h (three replicates were prepared for each incubation time).
An aliquot of 125 μL human plasma sample (blank, calibration standards and incubation samples) were processed using Sirocco™ Protein Precipitation plates (Waters). 375 μL of ACN were added to each well of the Sirocco plate. Then the samples were filtered applying vacuum (8-10 mm Hg) for about 5 minutes. The filtrates were evaporated under a steady stream of nitrogen (40° C.) and reconstituted with 150 μL of MeOH:H2O 0.1% HCOOH for analysis. Samples were analyzed by UPLC(ACQUITY Ultra Performance LC-MS/MS(API 3000).
UPLC conditions (X-Bridge C18 column; Pump A: H2O with 0.1% formic acid; Pump B Acetonitrile with 0.1% formic acid) using a linear gradient 5%-95% of B in 8 minutes (R. T.=5.95). The mean (out of 3 experiments) of the normalized percentage integrated area corresponding to the peak of S09 at different time are reported in table 11 below.

Compound	EC50 [1]	EC50 [2]	EC50 [3]	EC50 [4]	EC50 [5]	anticancer activity (active / inactive) [6]	% Remaining of active metabolyte (mean) ([7]; 100 μM, incubation time 0 h)	% Remaining of starting compound (mean) ([7]; 100 μM, incubation time 0 h)	% Remaining of active metabolyte (mean) ([7]; 100 μM, incubation time 2 h)	% Remaining of active metabolyte (mean) ([7]; 100 μM, incubation time 6 h)	% Remaining of active metabolyte (mean) ([7]; 100 μM, incubation time 24 h)	remaining at 2 h, 100 μM ([7]; human plasma (EDTA-K2), incubation time 2 h, read-out: % Remaining of starting compound (mean))	remaining at 6 h, 100 μM ([7]; human plasma (EDTA-K2), incubation time 6 h, read-out: % Remaining of starting compound (mean))	remaining at 24 h, 100 μM ([7]; human plasma (EDTA-K2), incubation time 24 h, read-out: % Remaining of starting compound (mean))
CC[C@H](C)[C@H](NC(=O)[C@H](Cc1ccc(O)cc1)NC(=O)[C@H](C)NC(=O)[C@H](CC(C)C)NC(=O)[C@H](C)NC(=O)[C@H](CCCCN)NC(=O)[C@H](CCCCN)NC(=O)[C@H](Cc1ccccc1)NC(=O)[C@@H](NC(=O)[C@@H](NC(=O)[C@@H](NC(=O)[C@H](CCCCN)NC(=O)[C@@H]1CCCN1)[C@@H](C)CC)C(C)C)[C@@H](C)CC)C(=O)O [IDP-L14α, Pro-Lys-Val-Val-Ile-Leu-Lys-Lys-Ala-Thr-Ala-Tyr-Ile]	> 100 µM	> 100 µM	> 100 µM	> 100 µM	> 100 µM	inactive	–	–	–	–	–	–	–	–
NELKRSFFALRDQ-OH [IDP-L10, NELKRSFFALRDQ]	> 100 µM	> 100 µM	–	> 100 µM	> 100 µM	inactive	–	–	–	–	–	–	–	–
CC[C@H](C)[C@H](NC(=O)[C@H](Cc1ccc(O)cc1)NC(=O)[C@H](C)NC(=O)C1(C)CCCC=CCCCCCCC(C)(NC(=O)[C@H](CCCCN)NC(=O)[C@@H]2CCCN2C(=O)[C@H](C)N)C(=O)N[C@@H](C(C)C)C(=O)N[C@@H]([C@@H](C)CC)C(=O)N[C@@H](CC(C)C)C(=O)N[C@@H](CCCCN)C(=O)N[C@@H](CCCCN)C(=O)N[C@@H](C)C(=O)N1)C(=O)N[C@@H](CC(C)C)C(=O)N[C@@H](CO)C(=O)O (some centres unmarked) [IDP-S09, APKXVILKKAXAYILS-OH] (H-APK[X1]VILKKA[ξαMeNle(6-ylidene)]AYILS-OH; staple 4-11; N-terminus assumed)	–	–	–	–	–	–	0%	100%	0%	0%	0%	106 ± 4.9%	90 ± 16%	97 ± 10%
CC(C)C[C@H](NC(=O)[C@H](C)NC(=O)[C@H](C)NC(=O)[C@H](Cc1ccccc1)NC(=O)[C@H](CO)NC(=O)[C@H](CCCNC(=N)N)NC(=O)[C@H](CCCCN)NC(=O)[C@H](CC(C)C)NC(=O)[C@H](CCC(=O)O)NC(=O)[C@H](CC(N)=O)NC(=O)[C@H](CCCNC(=N)N)NC(=O)[C@H](CCCNC(=N)N)NC(=O)[C@H](CCC(N)=O)NC(=O)[C@H](CCCNC(=N)N)NC(=O)CCC(=O)O)C(=O)N[C@@H](CCCNC(=N)N)C(=O)N[C@@H](CC(=O)O)C(=O)N[C@@H](CCC(N)=O)C(=O)O [IDP-L12] (Suc-RQRRNELKRSFAALRDQ-OH; N-terminus and C-terminus assumed)	> 100 µM	> 100 µM	–	> 100 µM	> 100 µM	inactive	–	–	–	–	–	–	–	–
CC(C)C[C@H](NC(=O)[C@H](C)NC(=O)[C@H](C)NC(=O)[C@H](Cc1ccccc1)NC(=O)[C@H](C)NC(=O)[C@H](CCCNC(=N)N)NC(=O)[C@H](CCCCN)NC(=O)[C@H](CC(C)C)NC(=O)[C@H](CCC(=O)O)NC(=O)[C@H](CC(N)=O)NC(=O)[C@H](CCCNC(=N)N)NC(=O)[C@H](CCCNC(=N)N)NC(=O)[C@H](CCC(N)=O)NC(=O)[C@H](CCCNC(=N)N)NC(=O)CCC(=O)O)C(=O)N[C@@H](CCCNC(=N)N)C(=O)N[C@@H](CC(=O)O)C(=O)N[C@@H](CCC(N)=O)C(=O)O [IDP-L13, RQRRNELKRAFAALRDQ] (Suc-RQRRNELKRAFAALRDQ-OH; N-terminus and C-terminus assumed)	> 100 µM	> 100 µM	–	> 100 µM	> 100 µM	inactive	–	–	–	–	–	–	–	–
